Earlier results as cited in US9428497B2, “Precursor compounds for the radiosynthesis of [18F] norchloro-fluorohomoepibatidine” (priority 2011, dated 2016).
Read-outs that look alike come from different tables or passages of the source.

Legend:
[1] = mice; compared with 2-[18F]F-A-85380
[2] = piglets; compared with 2-[18F]F-A-85380

SMILES: [18F]c1ccc(C2CC3CCCC2N3)cn1 (single isomer, unassigned; (-)) [(−)-[^18F]NCFHEB, (−)-[^18F]norchloro-fluoro-homoepibatidine]
- cerebral uptake relative to 2-[18F]F-A-85380 [1]: more than two times higher
- cerebral uptake relative to 2-[18F]F-A-85380 [2]: more than two times higher
